# Values of other authors as cited in patent US20240285563A1, “USE OF (S)-3-AMINO-4-(DIFLUOROMETHYLENYL) CYCLOPENT-1-ENE-1-CARBOXYLIC ACID IN THE TREATMENT OF RHEUMATOID ARTHRITIS” (Ovid Therapeutics Inc., priority 2023, published 2024).
# Tests used:
# [1] = system: aspartate aminotransferase (Asp-AT)
# [2] = system: alanine aminotransferase (Ala-AT)
# OAT = molecular target: T1, OAT (Homo sapiens, UniProt P04181)
# T1 sequence (P04181 36-439 limits assumed): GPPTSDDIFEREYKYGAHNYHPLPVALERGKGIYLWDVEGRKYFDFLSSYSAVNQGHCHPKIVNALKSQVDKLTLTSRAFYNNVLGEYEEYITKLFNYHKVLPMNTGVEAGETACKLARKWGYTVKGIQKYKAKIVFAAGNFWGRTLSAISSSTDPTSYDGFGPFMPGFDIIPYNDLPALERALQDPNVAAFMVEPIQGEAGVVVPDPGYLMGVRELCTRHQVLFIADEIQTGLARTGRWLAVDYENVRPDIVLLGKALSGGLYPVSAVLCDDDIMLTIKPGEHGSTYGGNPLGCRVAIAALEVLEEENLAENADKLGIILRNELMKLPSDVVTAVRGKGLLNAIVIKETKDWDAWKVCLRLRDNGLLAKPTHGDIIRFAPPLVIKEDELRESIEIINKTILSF
SMILES,inactivation or inhibition of off-target enzyme [1],inactivation or inhibition of off-target enzyme [2],Ki (OAT) [µM],IC50 ([1]; very weak reversible inhibitor) [µM],IC50 ([2]; very weak reversible inhibitor) [µM],times more efficient an inactivator of OAT than CPP-115 (OAT; ratio of kinact/KI versus CPP-115) [times]
"N[C@H]1C[C@@H](C(=O)O)CC1=C(F)F [CPP-115, (1S,3S)-3-amino+difluoromethylenyl-1-cyclopentanoic acid, reference compound]",not to inactivate or inhibit,not to inactivate or inhibit,116,–,–,–
"N[C@H]1C=C(C(=O)O)CC1=C(F)F [OV329, (S)-3-amino-4-(difluoromethylenyl)cyclopent-1-ene-1-carboxylic acid]",–,–,3.3,> 4000,> 4000,9.0
